Data published in US5854216A, “Marker for growth hormone-releasing factor receptors” (Universite de Montreal, priority 1996, dated 1998).
Where two headings read alike, the source gives them in different places. Ends that are not written are not given here. * marks the point of attachment. FITC = O=C1OC2(c3ccc(O)cc3Oc3cc(O)ccc32)c2ccc(NC(=S)*)cc21; X1 = O=C(O)c1cc(C(=O)*)ccc1-c1c2ccc(=O)cc-2oc2cc(O)ccc12

Assays:
[1] = biological target: T1, GRF receptors ([^125 I-Tyr^10 ]hGRF(1-44)NH2 binding sites in rat adenopituitary) (Rattus norvegicus, UniProt Q02644); assay: Competitive binding assay with [^125 I-Tyr^10 ]hGRF(1-44)NH2 on anterior pituitary homogenates
T1 construct: from tissue; host or cells: rat anterior pituitary homogenate
T1 sequence (Q02644 23-423 isoform Q02644-2 limits assumed): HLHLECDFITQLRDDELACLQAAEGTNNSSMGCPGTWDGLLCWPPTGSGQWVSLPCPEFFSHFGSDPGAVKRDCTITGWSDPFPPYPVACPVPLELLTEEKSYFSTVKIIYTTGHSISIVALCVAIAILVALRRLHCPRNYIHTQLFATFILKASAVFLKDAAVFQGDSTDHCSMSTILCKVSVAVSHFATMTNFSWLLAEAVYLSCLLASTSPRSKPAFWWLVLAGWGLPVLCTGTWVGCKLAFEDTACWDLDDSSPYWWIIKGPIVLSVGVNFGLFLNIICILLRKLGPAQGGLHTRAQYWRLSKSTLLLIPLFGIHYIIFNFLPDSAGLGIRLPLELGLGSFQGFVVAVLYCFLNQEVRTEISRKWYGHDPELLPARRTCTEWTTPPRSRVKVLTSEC
Procedure, shortened: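 Rat anterior pituitary homogenates (70 to 75 μg protein) in 50 mM Tris-HCl pH 7.4 with 5 mM EDTA, 5 mM MgCl2, 0.42% BSA were competed with 35-50 pM radioligand against analogues at 0-1000 nM. Non-specific binding defined with 2.4 μM rGRF(1-29)NH2; 60 min at 23° C, stopped by centrifugation, pellet gamma-counted. hGRF(1-29)NH2 run in each experiment as reference.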

[2] = biological target: T2, GRF receptor (adenylate cyclase activity in rat adenopituitary) (Rattus norvegicus, UniProt Q02644); assay: Adenylate cyclase assay on anterior pituitary homogenates (cAMP by HPLC); assay type: biochemical
T2 construct: from tissue; host or cells: rat anterior pituitary homogenate
T2 sequence (Q02644 23-423 isoform Q02644-2 limits assumed): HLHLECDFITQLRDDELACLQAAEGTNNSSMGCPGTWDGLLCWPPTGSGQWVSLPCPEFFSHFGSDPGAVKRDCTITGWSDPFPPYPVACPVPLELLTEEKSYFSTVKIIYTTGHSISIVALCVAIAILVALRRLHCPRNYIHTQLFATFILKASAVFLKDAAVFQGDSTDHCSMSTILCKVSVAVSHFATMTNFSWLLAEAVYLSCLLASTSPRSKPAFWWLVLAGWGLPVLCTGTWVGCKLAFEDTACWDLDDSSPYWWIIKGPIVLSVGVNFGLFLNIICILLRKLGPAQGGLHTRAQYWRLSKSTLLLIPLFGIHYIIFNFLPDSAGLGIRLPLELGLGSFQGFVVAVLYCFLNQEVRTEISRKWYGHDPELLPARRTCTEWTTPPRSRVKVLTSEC
Description: The adenylate cyclase activity Nε-CF-[Lys^31 ]hGRF was performed on anterior pituitary homogenates as previously described (Lefrangois L. and Gaudreau P., J. Chromatogr., 1993, 619:116-120). Briefly, anterior pituitaries (pit.) were dissected out, rinsed and homogenized for 8 sec with a Micro Ultrasonic Cell Disrupter™, in ice-cold 20 mM Tris-HCl buffer (pH 7.5) containing 2 mM MgCl2 and 250 mM sucrose (1 pit./0.5 ml).
Samples of anterior pituitary homogenates (30-40 μg protein) were incubated in 1.5 ml Eppendorf™ tubes with 30 mM Tris-HCl, 5 mM MgCl2, 0.5 mM EGTA, containing 0.5 mM ATP, 1 mM IBMX, 10 μM GTP and an ATP regenerating system consisting of 2 mM creatine phosphate, 0.1 mg/ml creatine kinase and, 0.1 mg/ml myokinase in a final volume of 120 μl. Incubations were initiated by adding 20 μl of the homogenate to the reaction mixture which had previously been equilibrated at 37° C. for 2 min. The reactions were carried out for 8 min at 37° C. and stopped by heating the samples in boiling water for 4 min. Samples were centrifuged (12000 g, 5 min, 4° C.) and supernatants were filtered through 0.45 μm Millex HV4 ™ filters and transferred to autosampler vials for HPLC quantification of cAMP.

[3] = Solubility in water or buffer; assay type: physicochemical; settings: distilled water or aqueous buffer
[4] = Storage stability / shelf life; assay type: physicochemical
[5] = Toxicity (statement only)
[6] = biological target: T3, GRF receptor of rat adenopituitary (rat, UniProt Q02644-2); assay: displacement of 125I-Tyr10 hGRF(1-44)NH2 from rat anterior pituitary homogenate
T3 sequence: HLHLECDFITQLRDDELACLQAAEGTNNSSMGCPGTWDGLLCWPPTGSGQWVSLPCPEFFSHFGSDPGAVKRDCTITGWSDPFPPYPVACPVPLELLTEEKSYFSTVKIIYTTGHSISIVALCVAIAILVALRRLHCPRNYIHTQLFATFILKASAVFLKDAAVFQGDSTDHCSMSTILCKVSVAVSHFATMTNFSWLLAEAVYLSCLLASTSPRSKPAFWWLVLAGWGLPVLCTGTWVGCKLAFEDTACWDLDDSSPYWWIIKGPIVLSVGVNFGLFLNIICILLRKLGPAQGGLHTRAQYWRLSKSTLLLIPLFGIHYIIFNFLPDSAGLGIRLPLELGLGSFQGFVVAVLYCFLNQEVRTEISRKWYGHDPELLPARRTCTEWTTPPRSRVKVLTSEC
Description: (§1) The binding of [^125I-Tyr^10]hGRF(1–44)NH_2 was performed on anterior pituitary homogenates as previously described (Gaudreau P. et al., J. Biol. Chem., 1992, 35:1864–1869). Briefly, anterior pituitaries (pit.) were dissected out, rinsed and homogenized for 8 sec with a Micro Ultrasonic Cell Disrupter™, in ice-cold 50 mM Tris-HCl buffer, pH 7.4, containing 5 mM MgCl_2 and 5 mM EDTA (1 pit./0.5 ml). These homogenates were used immediately. Competition studies were performed using 35–50 pM [^125I-Tyr^10]hGRF(1–44)NH_2 as radio-ligand, 50 µl of homogenate (70 to 75 µg of protein), and increasing concentrations of Nε-CF-[Lys^31]hGRF or other GRF analogues (0–1000 nM) or with 2.4 µM rGRF(1–29)NH_2 for determination of non-specific binding, in a total volume of 300 µl of Tris-HCl buffer, pH 7.4, containing 5 mM EDTA, 5 mM MgCl_2 and 0.42% BSA. Incubations were carried out at 23° C. for 60 min and stopped by centrifugation (12,000 g, 5 min, at 4° C.). The radioactivity content in the pellet was measured by gamma counting. The affinity of hGRF(1–29)NH_2 was tested in each experiment to assess the validity of the assay and determine the relative affinity of the analogues.
75 to 97% of their initial concentration are recovered at the end of the binding assay (Gaudreau P. et al., J. Biol. Chem., 1992, 35:1864–1869). The Ligand computerized program was used to analyse competition curves of all the GRF analogues reported in Tables 4, 7 and 11, and to determine their IC$50$ and Hill coefficient. The Hill values indicate that all these peptides bind to the high and low affinity GRF binding sites found in the anterior pituitary.

[7] = biological target: T3, GRF receptor of rat adenopituitary
[8] = biological target: T3, GRF receptor of rat adenopituitary; assay: displacement of 125I-Tyr10 hGRF(1-44)NH2 from rat anterior pituitary homogenate; remark: listed apart in the source
Description: as §1
75 to 97% of their initial concentration are recovered at the end of the binding assay (Gaudreau P. et al., J. Biol. Chem., 1992, 35:1864–1869). […]

Molecule: H-YADAIFTNSYRKVLGQLSARKLLQDIMSRQK(X1)GESNQERGARARL-NH2 [Nε-5-carboxyfluoresceinyl-[Lys^31]hGRF(1-44)NH2]
- affinity for adenopituitary GRF receptors (in words) [1]: high affinity
- Hill coef. ([1]; Table 4): 0.55 ± 0.03
- Relative affinity ([1]; Table 4, ratio IC50 of hGRF(1-29)NH2 /IC50 analogue): 73 ± 27%
- agonist character at the GRF receptor [2]: full GRF receptor agonist
- Relative activity ([2]; Table 5, ratio EC50 of hGRF(1-29)NH2 /EC50 analogue): 55 ± 36%
- solubility [3]: freely soluble
- shelf life [4]: at least one year
- stability ([4]; protected from light and maintained at 4° C.): stable
- toxicity [5]: 100% non-toxic

B1: Nα-fluorescein-5-thiocarbamyl!hGRF(1-44)NH2 (peptide)
peptide: {FITC}-YADAIFTNSYRKVLGQLSARKLLQDIMSRQQGESNQERGARARL-NH2
- Relative affinity (%) against hGRF(1-29)NH2 [6]: 19%

B2: hGRF(1-29)NH2 (ligand)
peptide: YADAIFTNSYRKVLGQLSARKLLQDIMSR-NH2
- adenylate cyclase activity: EC50 of cAMP accumulation (column head prints IC50) [7]: 36.7 nM
- adenylate cyclase activity: Relative activity (%) [7]: 100%
- Relative affinity (%) against hGRF(1-29)NH2 [6]: 100%
- IC50 [8]: 2.4 nM

B3: Nα-fluorescein-5-thiocarbamyl!hGRF(1-29)NH2 (peptide)
peptide: {FITC}-YADAIFTNSYRKVLGQLSARKLLQDIMSR-NH2
- IC50 [6]: 14 nM
- Relative affinity (%) against hGRF(1-29)NH2 [6]: 19%
